According to patent US20240197729A1, “ALK-5 Inhibitors and Uses Thereof” (Sumitomo Pharma Oncology, Inc., priority 2021, published 2024):

Assays:
[1] = tested on: BMP-6/ALK2/Hepcidin pathway; assay: ALK2 off-target assay, hepcidin mRNA in HepG2 hepatocytes; type: cell-based, human; conditions: Homo sapiens; HepG2, 40 ng/ml BMP-6, 3 h; read-out: IC50, hepcidin mRNA expression
Description: In this study, LDN214117 (an ALK2 inhibitor available from Selleck Chemicals S7627) was included as a positive control, and vactosertib (an ALK5 inhibitor available from MedChem Express HY-19928) was included as a negative control.
HepG2 human hepatocytes (ATCC HB-8065) were seeded in EMEM (ATCC30-2003)+10% FBS in 96-well plate and allowed to grow overnight at 5% CO2 at 37° C. The next day, cells were pre-treated with selected compounds (Compound 01, 04 or 05) or one of the control compounds at various concentrations, or with vehicle (DMSO) for one hour. Cells were then stimulated with recombinant human BMP-6 (R&D Systems 507-BP-020) at a final concentration of 40 ng/ml, in the presence of test compound or DMSO for three hours. A no-BMP-6 stimulation condition was included for baseline hepcidin level measurement.
Hepcidin mRNA expression was measured by real-time RT-PCR with Cells-to-CT 1-Step TaqMan Kit (ThermoFisher A25603) following manufacturer's instructions. GAPDH levels were measured, and served as a normalization control. Hepcidin primer: TaqMan HAMP-FAM/MGB 20×(ThermoFisher 4331182); GAPDH primer: TaqMan GAPDH-VIC/MGB 20×(ThermoFisher 4326317E). Delta-delta Ct method was used to obtain relative Hepcidin expression.
The selected compounds and control compounds LDN214117 and vactosertib were tested at drug concentrations of 20 micromolar to 1.22 nanomolar at 4-fold serial dilution. All wells contained the same DMSO concentrations. IC50 values were calculated using nonlinear regression model with GraphPad Prism software. The results of the ALK-2 off-target assay are reported in Table 3B, where “++” indicates 0.1 μM<IC50≤1 μM and “+++” indicates […].

p-STAT3 (Tyr 705) = assay: A549 xenograft assay, p-STAT3; type: in vivo, mice; conditions: tumors 4 h after dosing
Text: To test compounds for inhibition of in vivo on-target activity (ALK5/TGF-bR1 inhibition) as well as potential Janus Kinase (JAK) signaling off-target activity, the A549 murine xenograft model was utilized. An ALK5 inhibitor (e.g., vactosertib) is expected to reduce the amount of the TGF-beta signaling molecule phospho-SMAD-2 (pSMAD2) in the A549 xenograft cells. The TGF-beta-mediated phosphorylation of SMAD2 in A549 cells takes place at amino acid residue four hundred and sixty-five and four hundred and sixty-seven (both are serine residues). A JAK inhibitor (e.g., ruxolitinib) is expected to reduce the phosphorylation of signal transducer and activator of transcription (STAT) proteins such as STAT3 at amino acid residue 705 (tyrosine).
At eight weeks of age, female athymic nude mice (purchased from Charles River) were injected with approximately 3.5 million A549 cells (ATCC, CCL-185). Specifically, cells were harvested and resuspended in plain RPMI media (no phenol red added) and Matrigel (Corning 356237) at a one to one ratio, and two hundred-microliters were injected into the right hind flank of each mouse. Tumors were measured every three days by caliper and as tumors reached an average of seventy-eighty millimeters cubed, mice were randomized in groups of three. All compounds were resuspended in 1-methyl-2-pyrrolidinone (Sigma 494496) (10%) plus 20% Solutol (Sigma 42966) in water (90%). Vactosertib and ruxolitinib were included as controls as ALK5 signaling inhibitor and JAK signaling inhibitor, respectively. Both controls were given at seventy-five milligrams per kilogram to three mice. The drug suspensions were sonicated for fifteen minutes to generate a fine particle suspension before being given to the mice. Mice were dosed (per oral gavage) with drug at one hundred, seventy-five, fifty, or ten milligrams per kilogram, with three mice per group. A vehicle control group with three mice was used to establish the baseline level of phospho-SMAD-2 in the tumor xenograft.
Four hours after drug administration, tumors were harvested, snap frozen and stored at negative eighty degrees Celsius until further processing. The phospho-SMAD-2 levels were determined using the Bio-Plex Pro™ Phospho-Smad2 (Ser465/Ser467) Set (BioRad 171V50019M). The phospho STAT3 levels were determined using the bead/antibody set from the MILLIPLEXMAP STAT Cell Signaling Magnetic Bead 5-Plex Kit (Millipore 48-610MAG). Both phospho SMAD-2 levels and phospho STAT3 levels were normalized to ß-Tubulin (MILLIPLEX MAP ß-Tubulin Total Magnetic Bead MAPmate™, Millipore 46-713MAG) or GAPDH (MILLIPLEX MAP GAPDH Total Magnetic Bead MAPmate™, Millipore 46-667MAG) levels from each sample. All analytes were analyzed in a multiplex fashion with the Bio-Plex Pro Cell Signaling Reagent Kit (BioRad 171304006M). Briefly, frozen tumor (fifteen to thirty milligrams) was lysed in 100 μl lysis buffer, processed in bead mill tube, and centrifuged. The resulting lysate was used at 1:50 dilution for the assay according to the manufacturer's instructions. Bead suspension was analyzed using the Luminex system (MAGPIX).

Row | Compound | IC50 [1] [nM] | Average % p-STAT3 (Tyr 705) of vehicle (p-STAT3 (Tyr 705); 10 mg/kg per oral gavage) [%] | Average % p-STAT3 (Tyr 705) of vehicle (p-STAT3 (Tyr 705); 50 mg/kg per oral gavage) [%] | Average % p-STAT3 (Tyr 705) of vehicle (p-STAT3 (Tyr 705); 75 mg/kg per oral gavage) [%] | Average % p-STAT3 (Tyr 705) of vehicle (p-STAT3 (Tyr 705); 100 mg/kg per oral gavage) [%]
1 | Clc1cccc2c(Nc3ccnc(Nc4cccc(N5CCOCC5)c4)c3)cnnc12 [Compound 04, N4-(8-chlorocinnolin-4-yl)-N2-[3-(morpholin-4-yl)phenyl]pyridine-2,4-diamine] | 100 to 1000 | 88 | 73 | 59 | 97
2 | Cc1nn(CC(F)(F)F)cc1Nc1cc(Nc2cnnc3c(C)cccc23)ccn1 [Compound 01, N2-[3-methyl-1-(2,2,2-trifluoroethyl)-1H-pyrazol-4-yl]-N4-(8-methylcinnolin-4-yl)pyridine-2,4-diamine] | ≥ 1000 | 92 | 70 | 66 | 76
3 | Cc1cccc2c(Nc3ccnc(Nc4ccc(N5CCOCC5)cc4)c3)cnnc12 [Compound 05, N4-(8-methylcinnolin-4-yl)-N2-[4-(morpholin-4-yl)phenyl]pyridine-2,4-diamine] | 100 to 1000 | 107 | 85 | 77 | 93
4 | Cc1cccc(-c2[nH]c(CNc3ccccc3F)nc2-c2ccc3ncnn3c2)n1 [Vactosertib, vactosertib, reference compound] | ≥ 1000 |  |  | 63 | 
